Measured values from patent publication US8815872B2, “Macrocyclics pyrimidines as aurora kinase inhibitors” (Merck Patent GmbH, priority 2008, dated 2014).
Like-named read-outs stand apart in the source and are kept apart here.

Tests used:
[1] = target: T1, Aurora A (Homo sapiens, UniProt O14965); experiment: Aurora A enzyme assay (Caliper LC3000 mobility shift); type: biochemical
T1 construct: N-terminal GST fusion with full length Aurora A (1-403 amino acids); purchased Carna Biosciences 05-101
T1 sequence (O14965 1-403): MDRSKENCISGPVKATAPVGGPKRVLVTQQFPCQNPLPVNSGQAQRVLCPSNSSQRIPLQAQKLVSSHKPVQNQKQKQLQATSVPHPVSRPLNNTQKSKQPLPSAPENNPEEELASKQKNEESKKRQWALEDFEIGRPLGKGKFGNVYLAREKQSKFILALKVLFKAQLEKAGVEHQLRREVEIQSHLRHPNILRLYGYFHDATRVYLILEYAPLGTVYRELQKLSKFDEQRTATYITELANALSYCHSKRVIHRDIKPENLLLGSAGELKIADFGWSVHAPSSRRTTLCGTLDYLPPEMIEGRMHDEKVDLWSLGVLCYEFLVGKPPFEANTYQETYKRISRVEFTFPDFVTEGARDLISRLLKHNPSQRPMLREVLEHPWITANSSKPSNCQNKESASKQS
Description: (§1) The Aurora and other kinase assays described here were performed on two Caliper Life Sciences systems, the LC3000 and the Desktop Profiler. These provide data on enzyme activity via measurement of the relative amounts of phosphorylated or unphosphorylated fluorescently labelled substrate peptide at the end of an enzymatic reaction. These different states of peptide are resolved by applying a potential difference across the sample. The presence of a charged phosphate group on the product (as opposed to the substrate) causes a different peptide mobility between the two peptides. This is visualized by excitation of a fluorescent label on the substrate and product peptides and represented as peaks within the analysis software.
For example, in order to measure inhibitor activity of Aurora A inhibitors in the Caliper Life Sciences LC3000, a TTP Mosquito liquid handling instrument was used to place […] of an appropriate concentration of inhibitor in 100% DMSO (for a dose response curve calculation) into each well of a 384-well plate. To this reaction components were added to a final volume of 25 μl: • 0.067 ng/μl GST-Aurora A (Carna Biosciences 05-101. N-terminal GST fusion with full length Aurora A (1-403 amino acids), accession number NP_940835.1). • 15 μM ATP (Fluka, 02055) • 1 mM DTT (Sigma, D0632) • 1 mM MgC12 (Sigma, M1028) • 1 μM substrate peptide (sequence FITC-LRRASLG-(CONH2), synthesized by Tufts Peptide Synthesis service. • 100 mM HEPES pH 7.5 (Calbiochem, 391338) • 0.015% Brij-35 (Sigma, B4184)
The reaction was incubated for 90 min at 25° C., and then stopped by the addition of 70 μl of Stop buffer (100 mM HEPES pH 7.5, 0.015% Brij-35, 10 mM EDTA (Sigma, E7889)).
The plate was read on a Caliper LC 3000 in an Off-Chip mobility shift assay format, using the following parameters for a 12-sipper chip: screening pressure −1.8 psi, upstream voltage −2700, downstream voltage −1000. These conditions cause unphosphorylated substrate and phosphorylated product peptide to resolve as separate peaks allowing direct measurement of percentage of conversion of substrate to product. The percent conversion was plotted against concentration of inhibitor to produce a sigmoidal dose response curve, from which an IC50 was calculated using XLFit for Microsoft Excel.

[2] = target: Aurora B (Homo sapiens, UniProt Q96GD4); experiment: Aurora B enzyme assay (Caliper); type: biochemical
Sequence of Aurora B (Q96GD4 whole entry): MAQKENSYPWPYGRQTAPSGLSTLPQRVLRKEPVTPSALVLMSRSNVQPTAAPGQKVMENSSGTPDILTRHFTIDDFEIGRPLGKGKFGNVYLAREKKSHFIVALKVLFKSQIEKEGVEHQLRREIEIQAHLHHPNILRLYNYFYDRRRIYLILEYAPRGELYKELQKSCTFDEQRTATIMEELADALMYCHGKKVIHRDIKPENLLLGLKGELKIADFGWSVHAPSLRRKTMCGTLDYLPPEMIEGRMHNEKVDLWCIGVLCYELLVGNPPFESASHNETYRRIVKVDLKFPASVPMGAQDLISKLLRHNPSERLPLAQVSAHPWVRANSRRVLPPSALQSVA
Description: as §1

[3] = tested on: A549; experiment: Cellular activity A549; type: cell-based
Description: (§2) The susceptibility of a particular cell to treatment with the compounds according to the invention was determined by in vitro tests. Typically, a culture of the cell was combined with a compound according to the invention at various concentrations for a period of time that was sufficient to allow the active agents to induce cell death or to inhibit migration, usually between about one hour and one week. In vitro testing was carried out using cultivated cells from a biopsy sample. The viable cells remaining after the treatment then were counted.

[4] = tested on: MiaPaca2; experiment: Cellular activity MiaPaca2; type: cell-based
Description: as §2

[5] = target: kinases (not incl. Aurora); experiment: Kinase inhibition profile (not incl. Aurora); type: biochemical; conditions: hit means >79% inhibition
Description: as §1
The Desktop Profiler utilizes the same principal as the LC 3000 for calculating percentage conversion of a substrate to product. Caliper Life Sciences provided proprietary flash frozen pre-made 384 well plates containing selected kinases. Each column in the 384 well plate contained a particular selected kinase. A second plate, the ‘substrate plate’ contained a mix of fluorescently labeled peptide substrate and ATP. These were arranged in columns so that transfer for substrate plate to enzyme plate provided the correct enzyme with the correct substrate/ATP concentration.
Compounds were added to a thawed enzyme plate in the desired format, in single concentrations. Reactions were initiated by transfer of the ubstrate/ATP mix from the substrate plate. The enzyme plate was incubated for 90 mins at 25 °C. The reaction was stopped by addition of […] of Stop Buffer (100 mM HEPES pH 7.5, 0.015% Brij-35, 10 mM EDTA (Sigma, E7889)).
Plates were read in a manner identical to that of the LC3000, and the ratio between substrate and product peaks provided the activity of the enzyme in that well. This was best represented by a plate heat map which colors each well by percent inhibition as compared to positive and negative controls (no inhibitors and no ATP respectively).

SMILES	IC50 [1]	IC50 [2]	IC50 ([3]; Homo sapiens)	IC50 ([4]; Homo sapiens, MIA PaCa-2)	Kinase Inhibition Profile (not incl. Aurora) # kinases hit/# kinases tested ([5]; at 1 μM)	Kinase Inhibition Profile (not incl. Aurora) # kinases hit/# kinases tested ([5]; at 10 μM)	Cellular Activity MiaPaca2 IC50 (nM) ([4]; MiaPaca2)	IC50 [3]	IC50 ([4]; MiaPaca2)
NC(=O)[C@H]1[C@@H]2C[C@H]3CNC(=O)Cn4cc(cn4)Nc4ncc(F)c(n4)N[C@@H]1[C@@H]3C2	1 to 100 nM	1 to 100 nM	> 6250 nM	1000 to 6250 nM	2/73 at 1 μM				
C=CC1CC2/C=C\COc3cccc(c3)Nc3ncc(F)c(n3)N[C@H]2[C@H]1C(N)=O (stereo partly shown)	1 to 100 nM	1 to 100 nM			0/36 at 1 uM				
NC(=O)[C@H]1[C@@H]2CC3CNC(=O)c4cccc(c4)Nc4ncc(F)c(n4)N[C@@H]1[C@@H]3C2 (stereo partly shown) [drawing 254]	1 to 100 nM	1 to 100 nM	1000 to 6250 nM	1000 to 6250 nM	1/76 at 1 μM				
O=C(O)[C@H]1[C@H]2C[C@H]3[C@H]1Nc1nc(ncc1F)Nc1cccc(c1)OCCS[C@@H]3C2 [drawing 218]	1 to 100 nM	1 to 100 nM	> 6250 nM	> 6250 nM		8/36 at 10 μM			
C=CC1CC2/C=C/COc3cccc(c3)Nc3ncc(F)c(n3)N[C@H]2[C@H]1C(N)=O (stereo partly shown)	101 to 1000 nM	101 to 1000 nM			0/36	12/255			
CCC1CC2/C=C\COc3cccc(c3)Nc3ncc(F)c(n3)N[C@H]2[C@H]1C(N)=O (stereo partly shown)	1 to 100 nM	1 to 100 nM			1/36 at 1 uM				
CCC1CC2CCCOc3cccc(c3)Nc3ncc(F)c(n3)N[C@H]2[C@H]1C(N)=O (stereo partly shown)	101 to 1000 nM	101 to 1000 nM			0/36 at 1 uM				
Nc1ccc(/C=C/NC(=O)[C@H]2[C@H]3C[C@H]4[C@H]2Nc2nc(ncc2F)Nc2cccc(c2)C(=O)CS[C@@H]4C3)cc1	101 to 1000 nM	101 to 1000 nM	> 6250 nM	> 6250 nM					
NC(=O)[C@H]1[C@H]2C[C@H]3[C@H]1Nc1nc(ncc1F)Nc1cccc(c1)C(O)CN[C@@H]3C2 (stereo partly shown)	101 to 1000 nM	1 to 100 nM	1000 to 6250 nM	1000 to 6250 nM					
NC(=O)[C@H]1[C@H]2C[C@H]3[C@H]1Nc1nc(ncc1F)Nc1cccc(c1)CSS[C@@H]3C2 [drawing 213]	1 to 100 nM	1 to 100 nM	1000 to 6250 nM	1000 to 6250 nM					
NC(=O)[C@H]1[C@@H]2CC3NNC(=O)Cc4cccc(c4)Nc4ncc(F)c(n4)N[C@@H]1[C@@H]3C2 (stereo partly shown)	1 to 100 nM	1 to 100 nM	> 6250 nM	> 6250 nM					
NC(=O)[C@H]1[C@@H]2CC3CNC(=O)c4cccc(c4)Nc4ncc(F)c(n4)N[C@@H]1[C@@H]3C2 (stereo partly shown) [drawing 259]	1 to 100 nM	1 to 100 nM			1/76 at 1 μM			1000 to 6250 nM	1000 to 6250 nM

The remaining lines, values ahead:

IC50 [1]	IC50 [2]	IC50 ([3]; Homo sapiens)	IC50 ([4]; Homo sapiens, MIA PaCa-2)	Kinase Inhibition Profile (not incl. Aurora) # kinases hit/# kinases tested ([5]; at 1 μM)	Kinase Inhibition Profile (not incl. Aurora) # kinases hit/# kinases tested ([5]; at 10 μM)	Cellular Activity MiaPaca2 IC50 (nM) ([4]; MiaPaca2)	IC50 [3]	IC50 ([4]; MiaPaca2)	SMILES
1 to 100 nM	1 to 100 nM	1000 to 6250 nM	1000 to 6250 nM	2/36 at 1 μM					NC(=O)[C@H]1[C@H]2C[C@H]3[C@H]1Nc1nc(ncc1F)Nc1cccc(c1)C(=O)CS[C@@H]3C2 [drawing 214]
1 to 100 nM	1 to 100 nM	101 to 1000 nM	101 to 1000 nM	13/36 at 1 μM					CN1CCN(c2ccc3cc2NC(=O)CS[C@@H]2C[C@@H]4C[C@H]2[C@@H](Nc2nc(ncc2F)N3)[C@H]4C(N)=O)CC1 [drawing 222]
1 to 100 nM	1 to 100 nM	101 to 1000 nM	101 to 1000 nM	12/36 at 1					NC(=O)[C@H]1[C@H]2C[C@H]3[C@H]1Nc1nc(ncc1F)Nc1cccc(c1)NC(=O)CS[C@@H]3C2 [drawing 221]
1 to 100 nM		1000 to 6250 nM	101 to 1000 nM	14/264 at 1 μM					CN1CCN(c2cc3cc(c2)C(=O)NC[C@@H]2C[C@@H]4C[C@H]2[C@@H](Nc2nc(ncc2F)N3)[C@H]4C(N)=O)CC1
1 to 100 nM	101 to 1000 nM	> 6250 nM	> 6250 nM	12/38 at 1 μM					N#Cc1ccc2cc1NC(=O)CS[C@@H]1C[C@@H]3C[C@H]1[C@@H](Nc1nc(ncc1F)N2)[C@H]3C(N)=O [drawing 223]
1 to 100 nM	1 to 100 nM	1 to 100 nM	1 to 100 nM	121/267 at 1 μM					CN1CCN(c2ccc3cc2[C@@H](O)CS[C@@H]2C[C@@H]4C[C@H]2[C@@H](Nc2nc(ncc2F)N3)[C@H]4C(N)=O)CC1
1 to 100 nM	1 to 100 nM	1000 to 6250 nM	1000 to 6250 nM	11/36 at 1 μM					NC(=O)[C@H]1[C@H]2C[C@H]3[C@H]1Nc1nc(ncc1F)Nc1cccc(c1)OCCS[C@@H]3C2 [drawing 219]
1 to 100 nM	1 to 100 nM	1 to 100 nM	1 to 100 nM	121/267 at 1 μM					CN1CCN(c2ccc3cc2[C@H](O)CS[C@@H]2C[C@@H]4C[C@H]2[C@@H](Nc2nc(ncc2F)N3)[C@H]4C(N)=O)CC1
101 to 1000 nM	1000 to 6250 nM	> 6250 nM	1000 to 6250 nM	0/73 at 1 μM					CN1CCN(c2ccc3cc2CC(=O)NC[C@@H]2C[C@@H]4C[C@H]2[C@@H](Nc2nc(ncc2F)N3)[C@H]4C(N)=O)CC1
101 to 1000 nM	101 to 1000 nM	> 6250 nM	1000 to 6250 nM	0/73 at 1 μM					CN1CCN(c2ccc3cc2C(=O)NC[C@@H]2C[C@@H]4C[C@H]2[C@@H](Nc2nc(ncc2F)N3)[C@H]4C(N)=O)CC1
101 to 1000 nM	101 to 1000 nM	1000 to 6250 nM				+++=			NC(=O)[C@H]1[C@H]2C[C@H]3[C@H]1Nc1nc(ncc1F)Nc1cccc(c1)[C@H](OCCCN1CCOCC1)CS[C@@H]3C2
1 to 100 nM	1 to 100 nM	101 to 1000 nM	101 to 1000 nM	0/76 at 1 μM					NC(=O)[C@H]1[C@H]2C[C@H]3[C@H]1Nc1nc(ncc1F)Nc1cccc(c1)[C@H](O)CS[C@@H]3C2
1 to 100 nM	1 to 100 nM	101 to 1000 nM	101 to 1000 nM	12/51 at 1 μM					CN1CCN(c2ccc3cc2OCCS[C@@H]2C[C@@H]4C[C@H]2[C@@H](Nc2nc(ncc2F)N3)[C@H]4C(N)=O)CC1 [drawing 220]
